Measured values taken from patent US6623933B1 (priority 1999, dated 2003).
Counter-ions that a name gives are not always drawn.

What was measured:
NR1011/NR2B = target: T1, NR1011/NR2B (Rattus norvegicus, UniProt P35439+Q00960); experiment: NMDA receptor currents in Ba-Ringer, Xenopus oocytes, Example 3; assay type: cell-based
T1 construct: expressed in transfected cells; host or cells: Xenopus oocytes

NR1101/NR2A = NR1101/NR2A (Rattus norvegicus, UniProt P35439+Q00959); experiment: NMDA-induced currents of NR1 splice variants, Xenopus oocytes, Example 4; assay type: cell-based; set-up: expressed in transfected cells; host or cells: Xenopus oocytes injected with NR1101 and NR2A mRNA; conditions: NR1101/2A; 100 μM PS; 200 μM NMDA+10 μM glycine
Method: Overnight cultures (500 ml) of transformed bacterial cells were prepared in order to grow sufficient quantities for maxiprep isolation of the plasmid CDNA. Maxipreps were done using a Sorvall RC-5B ultracentrifuge, Qiagen columns and cDNA was quantitated with spectrophotometry (OD260 and OD260/ OD280 ratio). The resulting plasmid cDNA was linearized by digestion with an appropriate restriction enzyme that cleaves distal to the cDNA insert (XhoI for NR2A or NotI for NR1100, NR1000, NR1111, NR1011, NR1101, NR1001). […] The samples were stored at −20° C. until use.
In vitro transcription was performed using the Ambion mMessage mMachine kit with T7 (NR1100, NR1000, NR1111, NR1011, NR1101, NR1001) RNA polymerase. The reaction was assembled on ice and allowed to incubate at 37° C. for 1-2 hr. The resulting mRNA was precipitated (reaction termination) using lithium chloride/5 mM EDTA solution and dissolved in RNase-free H2O. The concentration (OD260) and OD260/OD280 ratio (should be more than 1.5) was determined by spectrophotometer. The yield of mRNA was generally 15-30 μg. mRNA was stored at −80° C. until use.
Intracellular recording microelectrodes were fabricated from 100 μl borosilicate glass disposable micropipettes using a 2-step protocol on a standard horizontal Flaming-Brown micropipette puller.

NR1001/NR2B = target: T2, NR1001/NR2B (Rattus norvegicus, UniProt P35439+Q00960); experiment: NMDA receptor currents in Ba-Ringer, Xenopus oocytes, Example 3; assay type: cell-based
T2 construct: expressed in transfected cells; host or cells: Xenopus oocytes

NR1011/NR2B-D Chimera(I) = target: T3, NR1011/NR2B-D Chimera(I) (Rattus norvegicus, UniProt P35439+Q00960+Q62645); experiment: NR2 chimera study, Xenopus oocytes, Example 7; assay type: cell-based; conditions: 100 μM PS; 300 μM NMDA; 50 μM Glycine
T3 construct: expressed in transfected cells; host or cells: Xenopus oocytes
Source text: (§1) To produce the first subunit, 96% of the cytoplasmic COOH-terminal region of the NR2B subunit (residues 870 to 1482) were replaced with the corresponding region of the NR2D subunit (residues 892 to 1323).
(§2) The chimeric receptors were generated by first introducing a series of silent restriction sites in both the NR2B and NR2D cDNA. The chimeric cDNAs were then constructed by replacing corresponding regions of one cDNA with that of the other. The silence site mutations were generated by a method involving PCR. […] This cassette was then ligated into the cDNA cut with the same two restriction enzymes.

[1] = target: T4, NR1011/NR2B-D Chimera (III) (Rattus norvegicus, UniProt P35439+Q00960, A556P/A573T/A605S/A700P/A704S/A794R/A827V/A830G/C588S/C838W/D557A/D591T/D676E/D715E/D716E/D769G/DEL851-864/E594R/E701D/E791M/E804D/F554Y/F580L/F677Q/F681L/F709Y/F784L/F842V/F846L/G611A/G707V/G713R/G741R/G771R/G787D/G826L/I530V/I568T/I766L/I780L/I834L/I837A/I868M/INS849[…]/K624R/K669R/K708R/L566C/L719T/L783F/M789I/N675Q/N697S/N806I/P598S/Q621E/Q662T/Q767H/Q775P/Q812K/Q845R/R593K/R682K/R693K/R712P/R742K/S539A/S570V/S599T/S633L/S678Y/S720Q/S759T/T723A/T798S/T835V/V576I/V776I); experiment: NR2 chimera study, Xenopus oocytes, Example 7; assay type: cell-based; conditions: 100 μM PS; 300 μM NMDA; 50 μM Glycine
T4 construct: expressed in transfected cells; host or cells: Xenopus oocytes
Source text: as §1, §2

[2] = target: T5, NR1011/NR2B-D Chimera(II) (Rattus norvegicus, UniProt P35439+Q00960+Q62645, A556P/A573T/A605S/A700P/A704S/A794R/A827V/A830G/C588S/C838W/D557A/D591T/D676E/D715E/D716E/D769G/E594R/E701D/E791M/E804D/F554Y/F580L/F677Q/F681L/F709Y/F784L/F842V/F846L/G611A/G707V/G713R/G741R/G771R/G787D/G826L/I530V/I568T/I766L/I780L/I834L/I837A/K624R/K669R/K708R/L566C/L719T/L783F/M789I/N675Q/N697S/N806I/P598S/Q621E/Q662T/Q767H/Q775P/Q812K/Q845R/R593K/R682K/R693K/R712P/R742K/S539A/S570V/S599T/S633L/S678Y/S720Q/S759T/T723A/T798S/T835V/V576I/V776I); experiment: NR2 chimera study, Xenopus oocytes, Example 7; assay type: cell-based; conditions: 100 μM PS; 300 μM NMDA; 50 μM Glycine
T5 construct: expressed in transfected cells; host or cells: Xenopus oocytes
Source text: as §1, §2

NR1100/NR2B = target: T6, NR1100/NR2B (Rattus norvegicus, UniProt P35439+Q00960); experiment: NMDA receptor currents in Ba-Ringer, Xenopus oocytes, Example 3; assay type: cell-based
T6 construct: expressed in transfected cells; host or cells: Xenopus oocytes injected with RNA

NR1000/NR2B = target: T7, NR1000/NR2B (Rattus norvegicus, UniProt P35439+Q00960); experiment: as above; assay type: cell-based
T7 construct: expressed in transfected cells; host or cells: Xenopus oocytes injected with RNA

[3] = test system: AMPA/kainate receptor (rat brain poly(A)+ RNA); experiment: Kainate-evoked currents, Xenopus oocytes injected with rat brain poly(A)+ RNA; assay type: cell-based
NR1/NR2B (NR1100) = NR1/NR2B (NR1100) (Rattus norvegicus, UniProt P35439+Q00960); experiment: cell-based
NR1/NR2B (NR1100), sequence (Q00960 27-1482, other chains not shown): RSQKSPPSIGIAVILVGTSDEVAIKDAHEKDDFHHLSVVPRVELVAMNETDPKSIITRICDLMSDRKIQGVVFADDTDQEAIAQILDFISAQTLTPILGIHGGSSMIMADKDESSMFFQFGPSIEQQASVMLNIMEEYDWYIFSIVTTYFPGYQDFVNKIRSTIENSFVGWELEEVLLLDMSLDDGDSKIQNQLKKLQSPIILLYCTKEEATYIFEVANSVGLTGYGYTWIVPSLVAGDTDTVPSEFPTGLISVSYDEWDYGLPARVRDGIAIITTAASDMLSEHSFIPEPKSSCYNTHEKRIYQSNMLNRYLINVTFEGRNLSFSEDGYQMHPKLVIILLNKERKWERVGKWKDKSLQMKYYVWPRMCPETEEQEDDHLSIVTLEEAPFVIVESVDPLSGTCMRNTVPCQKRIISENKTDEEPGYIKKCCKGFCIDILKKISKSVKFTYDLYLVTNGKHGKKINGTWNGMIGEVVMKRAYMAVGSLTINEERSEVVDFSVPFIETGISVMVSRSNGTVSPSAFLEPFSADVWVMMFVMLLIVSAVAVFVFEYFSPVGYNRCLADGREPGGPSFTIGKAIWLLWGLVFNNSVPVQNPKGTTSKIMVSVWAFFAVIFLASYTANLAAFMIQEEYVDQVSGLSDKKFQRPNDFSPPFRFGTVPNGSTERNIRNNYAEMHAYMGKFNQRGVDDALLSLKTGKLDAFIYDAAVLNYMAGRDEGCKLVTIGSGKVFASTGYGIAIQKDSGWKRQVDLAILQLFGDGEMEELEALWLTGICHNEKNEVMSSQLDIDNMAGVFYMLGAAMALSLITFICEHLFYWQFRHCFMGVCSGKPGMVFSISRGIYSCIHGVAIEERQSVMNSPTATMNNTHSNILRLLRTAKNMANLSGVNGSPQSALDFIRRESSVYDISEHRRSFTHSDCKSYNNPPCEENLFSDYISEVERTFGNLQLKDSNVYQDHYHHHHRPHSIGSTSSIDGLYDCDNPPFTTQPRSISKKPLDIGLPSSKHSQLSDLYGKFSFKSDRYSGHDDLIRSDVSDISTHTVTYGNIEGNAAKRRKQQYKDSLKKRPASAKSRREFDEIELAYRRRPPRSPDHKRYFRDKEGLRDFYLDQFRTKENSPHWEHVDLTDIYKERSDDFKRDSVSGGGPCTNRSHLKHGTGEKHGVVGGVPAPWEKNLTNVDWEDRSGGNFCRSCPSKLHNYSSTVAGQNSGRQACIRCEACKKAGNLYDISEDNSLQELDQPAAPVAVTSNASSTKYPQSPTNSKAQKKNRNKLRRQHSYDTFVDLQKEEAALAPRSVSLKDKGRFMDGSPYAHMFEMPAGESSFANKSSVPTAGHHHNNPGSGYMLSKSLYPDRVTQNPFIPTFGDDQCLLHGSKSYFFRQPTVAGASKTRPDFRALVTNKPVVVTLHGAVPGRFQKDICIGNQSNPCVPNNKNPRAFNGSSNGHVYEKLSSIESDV

NR1/NR2C (NR1100) = NR1/NR2C (NR1100) (Rattus norvegicus, UniProt P35439+Q00961); experiment: cell-based
NR1/NR2C (NR1100), sequence (Q00961 20-1237, other chains not shown): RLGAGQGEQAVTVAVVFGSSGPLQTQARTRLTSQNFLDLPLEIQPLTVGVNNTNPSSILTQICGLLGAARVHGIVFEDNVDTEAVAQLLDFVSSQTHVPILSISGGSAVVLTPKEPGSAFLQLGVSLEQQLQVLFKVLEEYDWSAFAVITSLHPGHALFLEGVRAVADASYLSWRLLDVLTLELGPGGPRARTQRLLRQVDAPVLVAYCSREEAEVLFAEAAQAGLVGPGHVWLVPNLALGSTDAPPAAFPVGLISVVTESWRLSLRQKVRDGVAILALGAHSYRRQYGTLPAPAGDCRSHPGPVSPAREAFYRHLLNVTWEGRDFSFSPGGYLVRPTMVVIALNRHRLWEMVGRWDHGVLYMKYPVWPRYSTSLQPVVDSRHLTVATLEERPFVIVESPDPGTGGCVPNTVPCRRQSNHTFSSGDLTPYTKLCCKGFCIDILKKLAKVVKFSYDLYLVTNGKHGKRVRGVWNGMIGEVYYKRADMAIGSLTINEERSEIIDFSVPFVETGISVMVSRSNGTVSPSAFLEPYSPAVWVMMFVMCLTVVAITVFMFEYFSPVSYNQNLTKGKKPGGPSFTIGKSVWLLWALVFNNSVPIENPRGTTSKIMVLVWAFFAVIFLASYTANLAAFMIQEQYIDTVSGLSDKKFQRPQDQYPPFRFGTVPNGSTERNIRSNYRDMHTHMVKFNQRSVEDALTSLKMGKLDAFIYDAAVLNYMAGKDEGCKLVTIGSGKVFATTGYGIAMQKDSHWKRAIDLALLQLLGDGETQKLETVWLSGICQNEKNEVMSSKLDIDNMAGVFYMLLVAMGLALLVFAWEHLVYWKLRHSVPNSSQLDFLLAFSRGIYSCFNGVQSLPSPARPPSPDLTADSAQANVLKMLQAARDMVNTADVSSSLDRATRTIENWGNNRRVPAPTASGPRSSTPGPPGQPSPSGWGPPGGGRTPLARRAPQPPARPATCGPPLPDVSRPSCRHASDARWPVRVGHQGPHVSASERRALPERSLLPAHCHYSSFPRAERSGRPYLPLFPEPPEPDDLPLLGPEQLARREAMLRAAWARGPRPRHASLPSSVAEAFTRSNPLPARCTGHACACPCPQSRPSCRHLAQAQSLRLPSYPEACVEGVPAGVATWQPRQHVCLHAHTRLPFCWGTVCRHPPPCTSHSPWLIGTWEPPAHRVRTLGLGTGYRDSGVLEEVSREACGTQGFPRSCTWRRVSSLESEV

[4] = read-out: 3α5βS Emax (% Change)

T1 sequence (Q00960 27-1482, other chains not shown): as the sequence (Q00960 27-1482, other chains not shown) above

pregnenolone sulfate [PS] was tested, and the “PS Emax” value (NR1011/NR2B) was 0.78 ± 0.14, the “PS nHill” value (NR1011/NR2B) was 1.29 ± 0.19 and the “maximum relative current (MRC)” value (NR1101/NR2A) was 1.78. The “PS Emax” value (NR1001/NR2B) was 0.63 ± 0.07, the “PS nHill” value (NR1001/NR2B) was 1.34 ± 0.17 and the “potentiation of inward current” value (NR1011/NR2B-D Chimera(I)) was 52.69±3.58%. For the same compound, the “inhibition of inward current” value [1] was 36.74±6.54%, the “inhibition of inward current” value [2] was 43.04±5.44% and the “PS Emax” value (NR1100/NR2B) was 1.02 ± 0.10. For the same compound, the “PS nHill” value (NR1100/NR2B) was 1.42 ± 0.11, the “PS Emax” value (NR1000/NR2B) was 0.58 ± 0.04 and the “PS nHill” value (NR1000/NR2B) was 1.52 ± 0.15. The onset of inhibition [3] was under 10 s and the “reduction in kainate-evoked responses” value ([3]; 100 μM PS, 100 μM kainate) was 49±3%.

`CC(=O)[C@H]1CC[C@H]2[C@@H]3CC[C@@H]4C[C@H](OS(=O)(=O)O)CC[C@]4(C)[C@H]3CC[C@]12C` [3α5βS, 3α5β-pregnanolone sulfate] was tested, and the EC50 (NR1/NR2B (NR1100)) was 38 µM, the Emax (NR1/NR2B (NR1100); [4]) was -82 ± 1% and the EC50 (NR1/NR2C (NR1100)) was 12 µM. The Emax (NR1/NR2C (NR1100); [4]) was -99 ± 2%.
